Experiments:
[1] = molecular target: T1, DNA topoisomerase 2-alpha (Homo sapiens, UniProt P11388); assay: Inhibition of ATPase activity of human topoisomerase 2 alpha
[2] = molecular target: T1, DNA topoisomerase 2-alpha; assay: Inhibition of ATPase activity of human topoisomerase 2 alpha at 10 uM

T1 sequence (P11388 whole entry): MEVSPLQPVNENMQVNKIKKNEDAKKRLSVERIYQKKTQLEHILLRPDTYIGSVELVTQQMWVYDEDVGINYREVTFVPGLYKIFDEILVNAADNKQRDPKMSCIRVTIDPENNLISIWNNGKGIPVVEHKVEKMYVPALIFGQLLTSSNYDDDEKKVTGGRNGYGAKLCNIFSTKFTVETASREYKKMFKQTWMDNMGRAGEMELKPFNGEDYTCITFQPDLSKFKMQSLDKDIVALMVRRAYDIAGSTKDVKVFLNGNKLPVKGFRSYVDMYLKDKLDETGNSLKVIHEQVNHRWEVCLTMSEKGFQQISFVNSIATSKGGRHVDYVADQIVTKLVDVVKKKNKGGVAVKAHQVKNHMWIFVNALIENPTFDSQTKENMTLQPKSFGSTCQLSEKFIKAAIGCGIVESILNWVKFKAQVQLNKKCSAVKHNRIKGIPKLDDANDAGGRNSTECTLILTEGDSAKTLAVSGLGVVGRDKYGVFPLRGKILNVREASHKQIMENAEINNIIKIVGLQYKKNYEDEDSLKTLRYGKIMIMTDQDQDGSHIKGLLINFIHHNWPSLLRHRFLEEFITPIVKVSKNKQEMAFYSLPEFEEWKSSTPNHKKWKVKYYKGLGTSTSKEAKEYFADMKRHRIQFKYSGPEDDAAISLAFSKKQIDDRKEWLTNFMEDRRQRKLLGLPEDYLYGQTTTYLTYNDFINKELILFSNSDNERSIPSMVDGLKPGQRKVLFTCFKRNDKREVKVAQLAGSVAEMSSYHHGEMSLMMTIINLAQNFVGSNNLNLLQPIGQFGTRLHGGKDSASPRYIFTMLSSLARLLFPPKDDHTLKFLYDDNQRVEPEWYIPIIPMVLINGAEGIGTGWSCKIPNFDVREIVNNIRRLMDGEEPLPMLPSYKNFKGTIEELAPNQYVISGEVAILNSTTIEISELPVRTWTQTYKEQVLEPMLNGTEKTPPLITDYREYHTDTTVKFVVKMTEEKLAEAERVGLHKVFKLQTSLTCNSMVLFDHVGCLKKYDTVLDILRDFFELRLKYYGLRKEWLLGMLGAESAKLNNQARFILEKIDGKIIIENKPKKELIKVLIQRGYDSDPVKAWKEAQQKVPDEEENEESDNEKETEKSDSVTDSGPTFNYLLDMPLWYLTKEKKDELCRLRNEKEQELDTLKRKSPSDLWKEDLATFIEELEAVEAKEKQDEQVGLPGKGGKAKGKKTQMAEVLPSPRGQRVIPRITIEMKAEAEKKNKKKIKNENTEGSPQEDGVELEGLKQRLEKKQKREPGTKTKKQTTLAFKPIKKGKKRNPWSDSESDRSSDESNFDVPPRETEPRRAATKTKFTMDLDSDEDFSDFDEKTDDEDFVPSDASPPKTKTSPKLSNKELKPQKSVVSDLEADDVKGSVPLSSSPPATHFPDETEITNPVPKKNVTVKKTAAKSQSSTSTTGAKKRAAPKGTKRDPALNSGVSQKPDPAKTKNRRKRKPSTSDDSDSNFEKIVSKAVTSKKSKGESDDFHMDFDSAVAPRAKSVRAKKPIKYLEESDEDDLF

Compound: CC(C)(C)Nc1nc(Nc2ccc3ncsc3c2)nc2[nH]cnc12
- IC50 [1]: 1700 nM

Compound: Cn1cnc2c(NC(C)(C)C)nc(Nc3ccc4ncsc4c3)nc21
- inhibition [2]: 7%

Reference: ChEMBL document CHEMBL1152402, “Discovery of a new class of catalytic topoisomerase II inhibitors targeting the ATP-binding site by structure based design. Part I” (Bioorg Med Chem Lett, 2009)
